Data from article PMC9769502 (Microbiology Spectrum, 2022).
Read-outs that look alike come from different tables or passages of the source. No end group written: not given here.

Legend:
[1] = test system: Leishmania donovani axenic amastigotes; settings: 50 μM miltefosine control; cited from earlier work
Description: (§1) Axenic amastigotes were differentiated as described previously ([69]); briefly, transgenic L. donovani promastigotes expressing mCherry were differentiated by pH and temperature shifts. Amastigotes were seeded into 96-well plates at 5 × 10^6 cells/mL and incubated for 48 h in the presence of decreasing drug concentrations, starting at 20 μM, along with the appropriate solvent controls. Fluorescence was monitored (587-nm excitation/610-nm emission) over 48 h using a FlexStation 3 benchtop multimode reader (Molecular Devices). At 50 μM miltefosine, 99% parasite inhibition is observed. Thus, chan ...

[2] = test system: Leishmania donovani intracellular amastigotes; settings: 50 μM miltefosine control; cited from earlier work
Description: Transgenic L. donovani promastigotes constitutively expressing mCherry and THP-1 macrophages were cultured as described above. Metacyclic promastigotes were isolated using a Ficoll-400 density gradient as previously described ([70]). Differentiated macrophages were exposed to parasites for 4 h at a multiplicity of infection (MOI) of 10 parasites:1 macrophage. After 4 h, the macrophages were washed thoroughly with 1× phosphate-buffered saline (PBS) (pH 7.4) and incubated overnight at 37°C with 5% CO2. Macrophages were transferred to 96-well plates at 5 × 10^6 cells/mL and exposed to antimicrobi ...

[3] = test system: Leishmania donovani axenic amastigotes
Description: We utilized a previously developed high-throughput screening assay using transgenic axenic amastigotes expressing a red fluorescent protein, mCherry. Changes in mCherry fluorescence were normalized to 50 μM miltefosine in order to quantify parasite inhibition ([52]). In total, 5 scaffold 25-mer peptides and 475 synthetic 25-mer peptide variants were screened (Fig. 1). […] The assay was repeated, and the average percent parasite killing was determined.
Axenic amastigotes were differentiated as described previously ([69]).
as §1, with “[…] Thus, changes in mCherry fluorescence were normalized to the” for “At”, “miltefosine control in order to quantify” for “miltefosine, 99%”, “inhibition. Each assay was performed in triplicate. The IC50 values were calculated by nonlinear regression analysis using GraphPad Prism 9.0 for Windows.” for “inhibition is observed. Thus, chan ...”

THP-1 macrophages = assay: Cytotoxicity against THP-1 macrophages (CellTiter-Blue); format: cell-based, human
Description: THP-1 (human acute monocytic leukemia-derived) host macrophages were cultured in RPMI 1640 supplemented with 10% FCS and a penicillin-streptomycin antibiotic solution (10,000 U/mL penicillin, 10,000 μg/mL streptomycin) at 37°C with 5% CO2. THP-1 cells were incubated with 0.25 μM phorbol 12-myristate […] (PMA) for 48 h to differentiate into mature macrophages. Differentiated macrophages were seeded into 96-well plates at 5 × 10^6 cells/mL and incubated for 48 h in the presence of 20 μM antimicrobial peptides along with the appropriate solvent controls. Cell viability assays were conducted using CellTiter-Blue (Promega), based on resazurin reduction. After the 48-h incubation period, CellTiter-Blue reagent was added to cells for 4 h at 37°C, and fluorescence was measured (555-nm excitation/580-nm emission) using a FlexStation 3 benchtop multimode reader (Molecular Devices). Each assay was performed in triplicate. The CC50 values were calculated by nonlinear regression analysis using GraphPad Prism 9.0 for Windows.

axenic amastigotes = settings: previous data used to set the 20 μM screening concentration; read-out: IC50 of enterocin AS-48 (previous data); cited from earlier work
Description: We utilized a previously developed high-throughput screening assay using transgenic axenic amastigotes expressing a red fluorescent protein, mCherry. Changes in mCherry fluorescence were normalized to 50 μM miltefosine in order to quantify parasite inhibition ([52]). In total, 5 scaffold 25-mer peptides and 475 synthetic 25-mer peptide variants were screened (Fig. 1). […] The assa ... || In this work, we determined the efficacy and cytotoxicity of 480 synthetic, minimal AS-48 bacteriocin homolog peptide variants against L. donovani using phenotypic in vitro fluorometric assays. […] This study illustrates the successful use of rational design using the minimal domain of naturally occurring bacteriocin scaffolds to increase leishmanicidal activity.

[4] = test system: Leishmania pifanoi axenic amastigotes; settings: full-length enterocin AS-48; read-out: IC50 against Leishmania pifanoi axenic amastigotes; cited from earlier work
Excerpt: Enterocin AS-48, a class I bacteriocin, has been well characterized and is currently being investigated for use as an antimicrobial drug against a large variety of infectious disease agents ([45]). Enterocin AS-48 is a ribosomally produced, circularized bacteriocin encoded by Enterococcus faecalis subsp. liquefaciens strain S-48, which undergoes head-to-tail macrocyclization as a posttranslational modification ([46]). Efforts to engineer synthetic enterocin AS-48 have been made in order to improve mass production and bioactivity. Previously, segments of the bacteriocin have undergone α-ketoaci ...

[5] = test system: intracellular amastigotes; settings: previously shown; cited from earlier work
Excerpt: As Leishmania spp. are obligate intracellular parasites, intracellular amastigote IC50 value determination is necessary to understand the clinical relevance of the 10 antileishmanial peptide drug candidates.

[6] = read-out: Axenic amastigotes Mean IC50 ± SD, L. donovani mCherry axenic amastigotes, 48 h, fluorescence normalized to 50 μM miltefosine, highest concentration 20 μM, mean of three replicates
[7] = read-out: Axenic amastigotes Mean IC50 ± SD

In the case of `CCCCCCCCCCCCCCCCOP(=O)([O-])OCC[N+](C)(C)C` [miltefosine], the “Parasite inhibition (axenic amastigotes)” value [1] is listed as 99% and the Intracellular parasite inhibition [2] is listed as 99%.
For “AGRQWLTLYLKEELRKFGKKARIAW [Syn-xiamencin-53]”, the IC50 [3, 6] was 14800 nM and the “THP-1 macrophage CC50” value (THP-1 macrophages) was under 20 µM.
With “AGRQWLTLYLKEELRKRGKIAFKAW [Syn-xiamencin-54]” the IC50 [3, 6] was 7790 nM and the “THP-1 macrophage CC50” value (THP-1 macrophages) was under 20 µM.
In the case of “AGRQWLTLYLKEELRKRGKKAFIAW [Syn-xiamencin-49]”, the IC50 [3, 7] is reported as 9220 nM and the “THP-1 macrophage CC50” value (THP-1 macrophages) is reported as under 20 µM.
In the case of “AGSERIAKELKKYIKKGKKWIRAAW [Syn-enterocin-64]”, the IC50 [3, 6] is reported as 420 nM and the “THP-1 macrophage CC50” value (THP-1 macrophages) is reported as under 20 µM.
With “AGSERIAKELKKYIKKWKKVIRAAW [Syn-enterocin-48]” the IC50 [3, 6] was 1210 nM and the “THP-1 macrophage CC50” value (THP-1 macrophages) was under 20 µM.
With “AGTEKIFNRLKKWINEGKKIAKRAW [Syn-larvacin-32]” the IC50 [3, 6] was 230 nM and the “THP-1 macrophage CC50” value (THP-1 macrophages) was under 20 µM.
For “AGTEKIFQRLKKTIQEGKKIAKRAW [Syn-larvacin-7]”, the IC50 [3, 6] was 5610 nM and the “THP-1 macrophage CC50” value (THP-1 macrophages) was “below 20 μM”.
For “AGTEKIFQRLKKTIQEWKKIAKRAW [Syn-larvacin-47]”, the IC50 [3, 6] was 1100 nM and the “THP-1 macrophage CC50” value (THP-1 macrophages) was under 20 µM.
With “AGTEKIFQRLKKWIQEGKKIAKRAW [Syn-larvacin-31]” the IC50 [3, 7] was 3800 nM and the “THP-1 macrophage CC50” value (THP-1 macrophages) was under 20 µM.
In the case of “AGWQRLTLYLKEELRKRGKKAFIAW [Syn-xiamencin-50]”, the IC50 [3, 7] is reported as 3740 nM and the “THP-1 macrophage CC50” value (THP-1 macrophages) is reported as under 20 µM.
For “AWANRLTKELLEYLRKFGKIARKAW [Syn-xiamencin-32]”, the IC50 [3, 6] was 890 nM and the “THP-1 macrophage CC50” value (THP-1 macrophages) was under 20 µM.
With “AWAQRLTKELLEYLRKFGKIARKAW [Syn-xiamencin-31]” the IC50 [3, 6] was 4820 nM and the “THP-1 macrophage CC50” value (THP-1 macrophages) was under 20 µM.
With “AWKETIFQRLKKKIQEKGKRATIAW [Syn-larvacin 35]” the IC50 ([3]; 48 h) was 630 ± 140 nM, the “THP-1 macrophage CC50” value (THP-1 macrophages) was over 20 µM and the “THP-1 macrophage CC50” value (THP-1 macrophages; 48 h) was over 20 µM.
In the case of “AWKETIRKYLKNEIKKKGRKAVIAW [Syn-safencin-22]”, the IC50 [3, 6] is reported as 1180 nM and the “THP-1 macrophage CC50” value (THP-1 macrophages) is reported as under 20 µM.
With “AWKETIRQFLKKTIQEKGKRAKIAW [Syn-larvacin-37]” the IC50 [3, 6] was 290 nM and the “THP-1 macrophage CC50” value (THP-1 macrophages) was under 20 µM.
For “AWKETIRQYLKNEIKKKWRKAVIAW [Syn-safencin-89]”, the IC50 [3, 6] was 1050 nM and the “THP-1 macrophage CC50” value (THP-1 macrophages) was under 20 µM.
In the case of “AWKETIRQYLKNKIKKKGRKAVIAW [Syn-safencin-19]”, the IC50 [3, 6] is reported as 380 nM and the “THP-1 macrophage CC50” value (THP-1 macrophages) is reported as under 20 µM.
In the case of “AWKETIRQYLKNKIKKKWRKAVIAW [Syn-safencin-91]”, the IC50 [3, 6] is reported as 600 nM and the “THP-1 macrophage CC50” value (THP-1 macrophages) is reported as under 20 µM.
With “AWKKTIRQYLKNEIKKKGRKAVIAW [Syn-safencin-18]” the IC50 [3, 6] was 7960 nM and the “THP-1 macrophage CC50” value (THP-1 macrophages) was under 20 µM.
With “AWKKTIRQYLKNEIKKKWRKAVIAW [Syn-safencin-90]” the IC50 [3, 6] was 2600 nM and the “THP-1 macrophage CC50” value (THP-1 macrophages) was under 20 µM.
In the case of “AWKKTIRQYLKNKIKKKWRKAVIAW [Syn-safencin-92]”, the IC50 [3, 6] is reported as 900 nM and the “THP-1 macrophage CC50” value (THP-1 macrophages) is reported as under 20 µM.
In the case of “AWTEKIFNRLKKTINEGKKIAKRAW [Syn-larvacin-40]”, the IC50 [3, 6] is reported as 8350 nM and the “THP-1 macrophage CC50” value (THP-1 macrophages) is reported as under 20 µM.
In the case of “AWTEKIFQRLKKTIQEGKKIAKRAW [Syn-larvacin-39]”, the IC50 [3, 6] is reported as 1430 nM and the “THP-1 macrophage CC50” value (THP-1 macrophages) is reported as under 20 µM.
With “WGKETIFQRLKKKIQEKGKRATIAW [Syn-larvacin-11]” the IC50 [3, 6] was 660 nM and the “THP-1 macrophage CC50” value (THP-1 macrophages) was “below 20 μM”.
With “WGKETIRKYLKNEIKKKGRKAVIAW [Syn-safencin-14]” the IC50 [3, 6] was 670 nM and the “THP-1 macrophage CC50” value (THP-1 macrophages) was “below 20 μM”.
For “WGKETIRQFLKKKIQEKGKIATRAW [Syn-larvacin 14]”, the IC50 ([3]; 48 h) was 3890 ± 100 nM, the “THP-1 macrophage CC50” value (THP-1 macrophages) was over 20 µM and the “THP-1 macrophage CC50” value (THP-1 macrophages; 48 h) was over 20 µM.
For “WGKETIRQKLKNEIKKKGRKAVIAW [Syn-safencin-15]”, the IC50 [3, 6] was 1710 nM and the “THP-1 macrophage CC50” value (THP-1 macrophages) was “below 20 μM”.
In the case of “WGKETIRQYLKNKIKKKGRKAVIAW [Syn-safencin-11]”, the IC50 [3, 6] is reported as 12200 nM and the “THP-1 macrophage CC50” value (THP-1 macrophages) is reported as “below 20 μM”.
With “WGKKTIRQYLKNEIKKKGRKAVIAW [Syn-safencin-10]” the IC50 [3, 6] was 2970 nM and the “THP-1 macrophage CC50” value (THP-1 macrophages) was “below 20 μM”.
With “WGTEKIRQFLKKKIQEKGKRATIAW [Syn-larvacin-10]” the IC50 [3, 6] was 270 nM and the “THP-1 macrophage CC50” value (THP-1 macrophages) was “below 20 μM”.
In the case of enterocin AS-48, the IC50 (axenic amastigotes) is given as about 20 µM, the IC50 [4] is given as 10.2 ± 1.2 µM and the “Activity against intracellular amastigotes” value [5] is given as “limited activity”.
